{"source": "ChEMBL document CHEMBL4270617", "about": "“Design, synthesis, antimicrobial, antiquorum-sensing and antitumor evaluation of new series of pyrazolopyridine derivatives” (Eur J Med Chem, 2018)", "key": {"[1]": {"experiment": "Displacement of methyl green from DNA (unknown origin) incubated in dark for 24 hrs"}, "Staphylococcus aureus": {"system": "Staphylococcus aureus", "experiment": "Antibacterial activity against Staphylococcus aureus ATCC 29213 after 24 hrs by two-fold serial dilution method", "assay_type": "functional", "conditions": "ATCC 29213, 24 h"}, "Bacillus cereus": {"system": "Bacillus cereus", "experiment": "Antibacterial activity against Bacillus cereus UW 85 after 24 hrs by two-fold serial dilution method", "assay_type": "functional", "conditions": "UW 85, 24 h"}, "Escherichia coli": {"system": "Escherichia coli", "experiment": "Antibacterial activity against Escherichia coli ATCC 12435 after 24 hrs by two-fold serial dilution method", "assay_type": "functional", "conditions": "ATCC 12435, 24 h"}, "Pseudomonas aeruginosa": {"system": "Pseudomonas aeruginosa", "experiment": "Antibacterial activity against Pseudomonas aeruginosa PAO1 after 24 hrs by two-fold serial dilution method", "assay_type": "functional", "conditions": "PAO1, 24 h"}, "Candida albicans": {"system": "Candida albicans", "experiment": "Antifungal activity against Candida albicans after 48 hrs by two-fold serial dilution method", "assay_type": "functional"}, "Aspergillus fumigatus": {"system": "Aspergillus fumigatus", "experiment": "Antifungal activity against Aspergillus fumigatus 293 after 48 hrs by two-fold serial dilution method", "assay_type": "functional", "conditions": "Aspergillus fumigatus, 293, 48 h"}, "Aspergillus flavus": {"system": "Aspergillus flavus", "experiment": "Antifungal activity against Aspergillus flavus 3375 after 48 hrs by two-fold serial dilution method", "assay_type": "functional", "conditions": "Aspergillus flavus, 3375, 48 h"}, "[2]": {"system": "Chromobacterium violaceum", "experiment": "Inhibition of quorum sensing system in Chromobacterium violaceum ATCC 12472 assessed as diameter of violacein pigment inhibition at 5 mg/ml after 48 hrs"}, "HepG2": {"system": "HepG2", "experiment": "Antitumor activity against human HepG2 cells assessed as inhibition of cell proliferation after 48 hrs by MTT assay", "assay_type": "functional, cell-based", "conditions": "HepG2, 48 h"}, "MCF7": {"system": "MCF7", "experiment": "Antitumor activity against human MCF7 cells assessed as inhibition of cell proliferation after 48 hrs by MTT assay", "assay_type": "functional, cell-based", "conditions": "MCF7, 48 h"}, "HeLa": {"system": "HeLa", "experiment": "Antitumor activity against human HeLa cells assessed as inhibition of cell proliferation after 48 hrs by MTT assay", "assay_type": "functional, cell-based", "conditions": "read-out: IC50"}, "Ehrlich [3]": {"system": "Ehrlich", "experiment": "Antitumor activity against mouse EAC cells allografted in Swiss mouse assessed as mean survival time at 0.5 mg/mouse administered for 9 days (reference value: 18 day)", "assay_type": "functional"}, "Ehrlich [4]": {"system": "Ehrlich", "experiment": "Antitumor activity against mouse EAC cells allografted in Swiss mouse assessed as increase in life span at 0.5 mg/mouse administered for 9 days relative to control", "assay_type": "functional"}, "Ehrlich [5]": {"system": "Ehrlich", "experiment": "Antitumor activity against mouse EAC cells allografted in Swiss mouse assessed as tumor volume at 0.5 mg/mouse administered for 9 days (reference value: 10.15 mL)", "assay_type": "functional"}, "Ehrlich [6]": {"system": "Ehrlich", "experiment": "Antitumor activity against mouse EAC cells allografted in Swiss mouse assessed as viable tumor cell count at 0.5 mg/mouse administered for 9 days (reference value: 77.41 10^6/ml)", "assay_type": "functional"}, "Mus musculus [7]": {"system": "Mus musculus", "experiment": "Toxicity in Swiss albino mouse implanted with mouse EAC cells assessed as hemoglobin level at 0.5 mg/mouse administered for 9 days (reference value: 7.05 g/dl)", "assay_type": "organism-based", "conditions": "in vivo, 216 h"}, "Mus musculus [8]": {"system": "Mus musculus", "experiment": "Toxicity in Swiss albino mouse implanted with mouse EAC cells assessed as RBC count at 0.5 mg/mouse administered for 9 days (reference value: 3.59 10^6/mm3)", "assay_type": "organism-based", "conditions": "in vivo, 216 h"}, "Mus musculus [9]": {"system": "Mus musculus", "experiment": "Toxicity in Swiss albino mouse implanted with mouse EAC cells assessed as WBC count at 0.5 mg/mouse administered for 9 days (reference value: 20.53 10^3/mm3)", "assay_type": "organism-based", "conditions": "in vivo, 216 h"}, "WI-38": {"system": "WI-38", "experiment": "Cytotoxicity against human W138 cells after 48 hrs by MTT assay", "assay_type": "cell-based", "conditions": "WI-38, 48 h"}, "WISH": {"system": "WISH", "experiment": "Cytotoxicity against human WISH cells after 48 hrs by MTT assay", "assay_type": "cell-based"}}, "data": [{"smiles": "CCOC(=O)C1=C(NN=C(C(C)=O)C(C)=O)Nc2[nH]nc(C)c2C1c1ccc(N(C)C)cc1", "note": "(centres undefined)", "values": [{"measurement": "IC50", "setting": "[1]", "result": 35.5, "unit": "µM"}, {"measurement": "MIC", "setting": "Staphylococcus aureus", "result": 2210, "unit": "µM"}, {"measurement": "MIC", "setting": "Bacillus cereus", "result": 552, "unit": "µM"}, {"measurement": "MIC", "setting": "Escherichia coli", "result": 552, "unit": "µM"}, {"measurement": "MIC", "setting": "Pseudomonas aeruginosa", "result": 552, "unit": "µM"}, {"measurement": "MIC", "setting": "Candida albicans", "result": 2210, "unit": "µM"}, {"measurement": "MIC", "setting": "Aspergillus fumigatus", "result": 4420, "unit": "µM"}, {"measurement": "MIC", "setting": "Aspergillus flavus", "result": 1100, "unit": "µM"}, {"measurement": "diameter of the inhibition zone (DIZ)", "setting": "[2]", "result": "< 2", "unit": "mm"}, {"measurement": "IC50", "setting": "HepG2", "result": 8.48, "unit": "µM"}, {"measurement": "IC50", "setting": "MCF7", "result": 9.74, "unit": "µM"}, {"measurement": "IC50", "setting": "HeLa", "result": 17, "unit": "µM"}, {"measurement": "MSD", "setting": "Ehrlich [3]", "result": 49, "unit": "days"}, {"measurement": "Activity", "setting": "Ehrlich [4]", "result": 172.2, "unit": "%"}, {"measurement": "Activity", "setting": "Ehrlich [5]", "result": 1.9, "unit": "mL"}, {"measurement": "Activity", "setting": "Ehrlich [6]", "result": 27.53, "unit": "×10⁶ /ml"}, {"measurement": "Activity", "setting": "Mus musculus [7]", "result": 13.45, "unit": "g/dL"}, {"measurement": "Activity", "setting": "Mus musculus [8]", "result": 5.65, "unit": "×10⁶ /mm3"}, {"measurement": "Activity", "setting": "Mus musculus [9]", "result": 8.84, "unit": "×10³ /mm3"}, {"measurement": "IC50", "setting": "WI-38", "result": 61.4, "unit": "µM"}, {"measurement": "IC50", "setting": "WISH", "result": 58.7, "unit": "µM"}]}, {"smiles": "CCOC(=O)C1=C(N/C=N/c2cccnc2Cl)Nc2[nH]nc(C)c2C1c1ccc(N(C)C)cc1", "note": "(centres undefined)", "values": [{"measurement": "IC50", "setting": "[1]", "result": 30.2, "unit": "µM"}, {"measurement": "MIC", "setting": "Staphylococcus aureus", "result": 65.1, "unit": "µM"}, {"measurement": "MIC", "setting": "Bacillus cereus", "result": 65.1, "unit": "µM"}, {"measurement": "MIC", "setting": "Escherichia coli", "result": 65.1, "unit": "µM"}, {"measurement": "MIC", "setting": "Pseudomonas aeruginosa", "result": 65.1, "unit": "µM"}, {"measurement": "MIC", "setting": "Candida albicans", "result": 130, "unit": "µM"}, {"measurement": "MIC", "setting": "Aspergillus fumigatus", "result": 521, "unit": "µM"}, {"measurement": "MIC", "setting": "Aspergillus flavus", "result": 521, "unit": "µM"}, {"measurement": "diameter of the inhibition zone (DIZ)", "setting": "[2]", "result": "< 2", "unit": "mm"}, {"measurement": "IC50", "setting": "HepG2", "result": 4.89, "unit": "µM"}, {"measurement": "IC50", "setting": "MCF7", "result": 4.18, "unit": "µM"}, {"measurement": "IC50", "setting": "HeLa", "result": 4.63, "unit": "µM"}, {"measurement": "MSD", "setting": "Ehrlich [3]", "result": 59, "unit": "days"}, {"measurement": "Activity", "setting": "Ehrlich [4]", "result": 227.8, "unit": "%"}, {"measurement": "Activity", "setting": "Ehrlich [5]", "result": 1.25, "unit": "mL"}, {"measurement": "Activity", "setting": "Ehrlich [6]", "result": 21.8, "unit": "×10⁶ /ml"}, {"measurement": "Activity", "setting": "Mus musculus [7]", "result": 13.85, "unit": "g/dL"}, {"measurement": "Activity", "setting": "Mus musculus [8]", "result": 5.78, "unit": "×10⁶ /mm3"}, {"measurement": "Activity", "setting": "Mus musculus [9]", "result": 8.14, "unit": "×10³ /mm3"}, {"measurement": "IC50", "setting": "WI-38", "result": 74.5, "unit": "µM"}, {"measurement": "IC50", "setting": "WISH", "result": 60.1, "unit": "µM"}]}, {"smiles": "CCOC(=O)C1=C(NN=C(C#N)C#N)Nc2[nH]nc(C)c2C1c1ccc(N(C)C)cc1", "note": "(centres undefined)", "values": [{"measurement": "IC50", "setting": "[1]", "result": 44, "unit": "µM"}, {"measurement": "MIC", "setting": "Staphylococcus aureus", "result": 4780, "unit": "µM"}, {"measurement": "MIC", "setting": "Bacillus cereus", "result": 2390, "unit": "µM"}, {"measurement": "MIC", "setting": "Escherichia coli", "result": 2390, "unit": "µM"}, {"measurement": "MIC", "setting": "Pseudomonas aeruginosa", "result": 1190, "unit": "µM"}, {"measurement": "MIC", "setting": "Candida albicans", "result": 2390, "unit": "µM"}, {"measurement": "MIC", "setting": "Aspergillus fumigatus", "result": 2390, "unit": "µM"}, {"measurement": "MIC", "setting": "Aspergillus flavus", "result": 2390, "unit": "µM"}, {"measurement": "diameter of the inhibition zone (DIZ)", "setting": "[2]", "result": "< 2", "unit": "mm"}, {"measurement": "IC50", "setting": "HepG2", "result": 13.7, "unit": "µM"}, {"measurement": "IC50", "setting": "MCF7", "result": 12.1, "unit": "µM"}, {"measurement": "IC50", "setting": "HeLa", "result": 15.2, "unit": "µM"}, {"measurement": "MSD", "setting": "Ehrlich [3]", "result": 39, "unit": "days"}, {"measurement": "Activity", "setting": "Ehrlich [4]", "result": 116.7, "unit": "%"}, {"measurement": "Activity", "setting": "Ehrlich [5]", "result": 2.25, "unit": "mL"}, {"measurement": "Activity", "setting": "Ehrlich [6]", "result": 30.93, "unit": "×10⁶ /ml"}, {"measurement": "Activity", "setting": "Mus musculus [7]", "result": 12.65, "unit": "g/dL"}, {"measurement": "Activity", "setting": "Mus musculus [8]", "result": 5.14, "unit": "×10⁶ /mm3"}, {"measurement": "Activity", "setting": "Mus musculus [9]", "result": 10.69, "unit": "×10³ /mm3"}, {"measurement": "IC50", "setting": "WI-38", "result": 42.7, "unit": "µM"}, {"measurement": "IC50", "setting": "WISH", "result": 45.2, "unit": "µM"}]}, {"smiles": "CCOC(=O)C1=C(N)Nc2[nH]nc(C)c2C1c1ccc(N(C)C)cc1", "note": "(centres undefined)", "values": [{"measurement": "IC50", "setting": "[1]", "result": 32.4, "unit": "µM"}, {"measurement": "MIC", "setting": "Staphylococcus aureus", "result": "> 200", "unit": "µg/mL"}, {"measurement": "MIC", "setting": "Bacillus cereus", "result": "> 200", "unit": "µg/mL"}, {"measurement": "MIC", "setting": "Escherichia coli", "result": 683, "unit": "µM"}, {"measurement": "MIC", "setting": "Pseudomonas aeruginosa", "result": "> 200", "unit": "µg/mL"}, {"measurement": "MIC", "setting": "Candida albicans", "result": "> 200", "unit": "µg/mL"}, {"measurement": "MIC", "setting": "Aspergillus fumigatus", "result": "> 200", "unit": "µg/mL"}, {"measurement": "MIC", "setting": "Aspergillus flavus", "result": "> 200", "unit": "µg/mL"}, {"measurement": "diameter of the inhibition zone (DIZ)", "setting": "[2]", "result": "< 2", "unit": "mm"}, {"measurement": "IC50", "setting": "HepG2", "result": 4.24, "unit": "µM"}, {"measurement": "IC50", "setting": "MCF7", "result": 5.06, "unit": "µM"}, {"measurement": "IC50", "setting": "HeLa", "result": 6.22, "unit": "µM"}, {"measurement": "MSD", "setting": "Ehrlich [3]", "result": 65, "unit": "days"}, {"measurement": "Activity", "setting": "Ehrlich [4]", "result": 261.1, "unit": "%"}, {"measurement": "Activity", "setting": "Ehrlich [5]", "result": 1.05, "unit": "mL"}, {"measurement": "Activity", "setting": "Ehrlich [6]", "result": 18.64, "unit": "×10⁶ /ml"}, {"measurement": "Activity", "setting": "Mus musculus [7]", "result": 14.15, "unit": "g/dL"}, {"measurement": "Activity", "setting": "Mus musculus [8]", "result": 6.26, "unit": "×10⁶ /mm3"}, {"measurement": "Activity", "setting": "Mus musculus [9]", "result": 6.38, "unit": "×10³ /mm3"}, {"measurement": "IC50", "setting": "WI-38", "result": 84, "unit": "µM"}, {"measurement": "IC50", "setting": "WISH", "result": 94.6, "unit": "µM"}]}]}
